How the values were obtained:
[1] = test system: normal NK cells expanded with K562-aAPC; assay: drug sensitivity score (DSS) (DSS units); higher = more sensitive; extreme values may be limits of the assay; settings: 72 h; IL-2 2.5 ng/mL
Description: (§1)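 Drug sensitivity and resistance testing on K562-aAPC-expanded normal NK cells: 5 concentrations (10-fold steps over a 10,000-fold range), 72 h at 37 °C, viability by CellTiter-Glo normalised to DMSO and benzethonium chloride controls; DSS from the fitted curve.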

IMC-1 (IL-2 20 ng/mL) [2] = assay: percent inhibition of viability; higher = more inhibition; settings: 72 h
[3] = test system: normal primary NK cells, pool 3 (3 donors) (IL-2 2.5 ng/mL); assay: as above; settings: 72 h
[4] = test system: normal primary NK cells, pool 2 (3 donors) (IL-2 2.5 ng/mL); assay: as above; settings: 72 h
IMC-1 (IL-2 20 ng/mL) [5] = assay: drug sensitivity score (DSS) (DSS units); higher = more sensitive; extreme values may be limits of the assay; settings: 72 h
[6] = test system: normal primary NK cells, pool 3 (3 donors) (IL-2 2.5 ng/mL); assay: as above; settings: 72 h
[7] = test system: normal primary NK cells, pool 2 (3 donors) (IL-2 2.5 ng/mL); assay: as above; settings: 72 h
[8] = test system: normal NK cells expanded with K562-aAPC; assay: percent inhibition of viability; higher = more inhibition; settings: 72 h, IL-2 2.5 ng/mL
Description: as §1

KAI3 (IL-2 2.5 ng/mL) [9] = assay: as above; settings: 72 h
KHYG-1 (IL-2 2.5 ng/mL) [10] = assay: as above; settings: 72 h
DERL-7 (IL-2 2.5 ng/mL) [11] = assay: as above; settings: 72 h
[12] = test system: normal primary NK cells, pool 1 (3 donors) (IL-2 2.5 ng/mL); assay: as above; settings: 72 h
NK-92 (IL-2 2.5 ng/mL) [13] = assay: as above; settings: 72 h
NKL (IL-2 2.5 ng/mL) [14] = assay: as above; settings: 72 h
YT (IL-2 2.5 ng/mL) [15] = assay: as above; settings: 72 h
SNK-6 (IL-2 2.5 ng/mL) [16] = assay: as above; settings: 72 h
[17] = test system: normal primary NK cells, pool 1 (3 donors), resting (IL-2 0 ng/mL); assay: as above; settings: 72 h
NK-YS (IL-2 2.5 ng/mL) [18] = assay: as above; settings: 72 h
KAI3 (IL-2 2.5 ng/mL) [19] = assay: drug sensitivity score (DSS) (DSS units); higher = more sensitive; extreme values may be limits of the assay; settings: 72 h
KHYG-1 (IL-2 2.5 ng/mL) [20] = assay: as above; settings: 72 h
DERL-7 (IL-2 2.5 ng/mL) [21] = assay: as above; settings: 72 h
[22] = test system: normal primary NK cells, pool 1 (3 donors) (IL-2 2.5 ng/mL); assay: as above; settings: 72 h
NK-92 (IL-2 2.5 ng/mL) [23] = assay: as above; settings: 72 h
NKL (IL-2 2.5 ng/mL) [24] = assay: as above; settings: 72 h
YT (IL-2 2.5 ng/mL) [25] = assay: as above; settings: 72 h
SNK-6 (IL-2 2.5 ng/mL) [26] = assay: as above; settings: 72 h
[27] = test system: normal primary NK cells, pool 1 (3 donors), resting (IL-2 0 ng/mL); assay: as above; settings: 72 h
NK-YS (IL-2 2.5 ng/mL) [28] = assay: as above; settings: 72 h

O=C(O)C(=O)O.[NH-][C@@H]1CCCC[C@H]1[NH-].[Pt+2] [Oxaliplatin] (max concentration tested 100000 nM)
Settings | drug sensitivity score
IMC-1 (IL-2 20 ng/mL) [5] | 11.6
[1] | 18.5
[6] | 11.3
[7] | 10.7

percent inhibition of viability [%]
Settings | 10 nM | 100 nM | 1000 nM | 10000 nM | 100000 nM
IMC-1 (IL-2 20 ng/mL) [2] | -0.91 | 5.5 | 6.16 | 51.1 | 101
[3] | -8.94 | -0.68 | 20.4 | 44 | 97.6
[4] | -2.45 | -3.26 | 15.2 | 44.2 | 93.1
[8] | 0.69 | 4.04 | 21.3 | 86.9 | 101

CN(C)C(=O)c1cc2cnc(Nc3ccc(N4CCNCC4)cn3)nc2n1C1CCCC1 [Ribociclib] (max concentration tested 10000 nM)
Settings | drug sensitivity score
IMC-1 (IL-2 20 ng/mL) [5] | 0
[1] | 3.05
[6] | 1.58
[7] | 3.47

percent inhibition of viability [%]
Settings | 1 nM | 10 nM | 100 nM | 1000 nM | 10000 nM
IMC-1 (IL-2 20 ng/mL) [2] | -7.57 | -0.52 | -5.29 | 0.27 | 7.32
[3] | -3.67 | -4.43 | 6 | 1.54 | 30.9
[4] | -4.92 | -2.8 | 8.5 | 5.64 | 48.2
[8] | -3.33 | -2.59 | 0.08 | 20.6 | 22.7

Oc1ncc(N(CCCl)CCCl)c(O)n1 [Uracil mustard] (max concentration tested 10000 nM)
percent inhibition of viability [%]
Settings | DERL-7 (IL-2 2.5 ng/mL) [11] | KAI3 (IL-2 2.5 ng/mL) [9] | KHYG-1 (IL-2 2.5 ng/mL) [10] | NK-92 (IL-2 2.5 ng/mL) [13] | NK-YS (IL-2 2.5 ng/mL) [18] | NKL (IL-2 2.5 ng/mL) [14] | SNK-6 (IL-2 2.5 ng/mL) [16] | YT (IL-2 2.5 ng/mL) [15] | [12] | [17]
1 nM | -3.55 | -2.41 | -4.85 | -13 | -4.38 | -13 | -5.93 | -3.44 | 1.1 | 1.93
10 nM | -2.92 | -4.28 | -7.99 | 2.85 | -2.31 | -8.44 | -12.3 | -2.84 | 14.8 | 12.8
100 nM | 0.29 | 4.07 | -5.32 | -5.3 | -0.87 | 1.52 | -16.6 | -1.58 | 6.41 | 14.2
1000 nM | 1.68 | 10.1 | 0.5 | 11.1 | 8.35 | 7.38 | -20.1 | 6.78 | 7.51 | 7.77
10000 nM | -8.73 | 23.1 | 6.88 | 19.6 | 16.4 | 14.1 | -11.1 | 8.3 | 12.4 | 16.2

Settings | drug sensitivity score
DERL-7 (IL-2 2.5 ng/mL) [21] | 0
KAI3 (IL-2 2.5 ng/mL) [19] | 1.5
KHYG-1 (IL-2 2.5 ng/mL) [20] | 0
NK-92 (IL-2 2.5 ng/mL) [23] | 1.65
NK-YS (IL-2 2.5 ng/mL) [28] | 1.03
NKL (IL-2 2.5 ng/mL) [24] | 0.45
SNK-6 (IL-2 2.5 ng/mL) [26] | 0
YT (IL-2 2.5 ng/mL) [25] | 0
[22] | 0
[27] | 1.83

Oc1ncc(N(CCCl)CCCl)c(O)n1 [Uramustine] (max concentration tested 10000 nM)
Settings | drug sensitivity score
IMC-1 (IL-2 20 ng/mL) [5] | 0
[1] | 0.53
[6] | 0
[7] | 0.26

percent inhibition of viability [%]
Settings | 1 nM | 10 nM | 100 nM | 1000 nM | 10000 nM
IMC-1 (IL-2 20 ng/mL) [2] | -9.69 | 0.32 | 0.64 | 0.1 | 6.18
[3] | -4.89 | 6.36 | 6.72 | 4.62 | 8.5
[4] | -0.88 | 5.22 | 7.92 | 6.65 | 14.2
[8] | -9.68 | -7.07 | -4 | 3.8 | 14.6

CC1(C)CCC(CN2CCN(c3ccc(C(=O)NS(=O)(=O)c4ccc(NCC5CCOCC5)c([N+](=O)[O-])c4)c(Oc4cnc5[nH]ccc5c4)c3)CC2)=C(c2ccc(Cl)cc2)C1 [Venetoclax] (max concentration tested 1000 nM)
Settings | drug sensitivity score
IMC-1 (IL-2 20 ng/mL) [5] | 0
[1] | 0.35
[6] | 0.37
[7] | 2.56

percent inhibition of viability [%]
Settings | 0.1 nM | 1 nM | 10 nM | 100 nM | 1000 nM
IMC-1 (IL-2 20 ng/mL) [2] | -3.1 | 2.12 | -1.24 | -0.5 | 5.01
[3] | -10.2 | -7.52 | -5.3 | 1.76 | 14.7
[4] | -15.6 | -3.12 | 0.73 | 7.62 | 31.3
[8] | 3.87 | -7.3 | -4.26 | -4.09 | 18.9

CC1(C)CCC(CN2CCN(c3ccc(C(=O)NS(=O)(=O)c4ccc(NCC5CCOCC5)c([N+](=O)[O-])c4)c(Oc4cnc5[nH]ccc5c4)c3)CC2)=C(c2ccc(Cl)cc2)C1 [Venetoclax] (max concentration tested 10000 nM)
percent inhibition of viability [%]
Settings | DERL-7 (IL-2 2.5 ng/mL) [11] | KAI3 (IL-2 2.5 ng/mL) [9] | KHYG-1 (IL-2 2.5 ng/mL) [10] | NK-92 (IL-2 2.5 ng/mL) [13] | NK-YS (IL-2 2.5 ng/mL) [18] | NKL (IL-2 2.5 ng/mL) [14] | SNK-6 (IL-2 2.5 ng/mL) [16] | YT (IL-2 2.5 ng/mL) [15] | [12] | [17]
1 nM | 1.21 | 27.7 | -4.77 | -4.75 | 4.6 | 5.96 | 10.4 | 3.82 | -1.92 | -13.2
10 nM | 17 | 55.8 | -0.91 | 2.95 | 3.22 | 19.3 | 48.6 | 7.84 | -1.34 | 53.6
100 nM | 36.3 | 71 | 1.35 | 18.2 | 6.71 | 45.6 | 50.4 | 10.9 | 4.44 | 87.3
1000 nM | 54.6 | 91.3 | 29.1 | 17 | 25.8 | 55.5 | 74.7 | 67.4 | 36.7 | 91.6
10000 nM | 87.8 | 98.7 | 82.5 | 66.6 | 82.6 | 85.8 | 96.6 | 88.4 | 67.1 | 91.2

Settings | drug sensitivity score
DERL-7 (IL-2 2.5 ng/mL) [21] | 16.2
KAI3 (IL-2 2.5 ng/mL) [19] | 33.6
KHYG-1 (IL-2 2.5 ng/mL) [20] | 8.64
NK-92 (IL-2 2.5 ng/mL) [23] | 5.65
NK-YS (IL-2 2.5 ng/mL) [28] | 7.95
NKL (IL-2 2.5 ng/mL) [24] | 18.4
SNK-6 (IL-2 2.5 ng/mL) [26] | 26.1
YT (IL-2 2.5 ng/mL) [25] | 14.1
[22] | 8.04
[27] | 34.5

Reference: the supplement of paper PMC5908809
